Data on six cell lines can be found in the supplement of paper PMC10307832.

Holding throughout (experiment): relative viability (nuclei count vs DMSO), 5 days (fraction); higher = more cells survive
Compound in the experiment “KN-93 + Crizotinib”: CN(C/C=C/C1=CC=C(C=C1)Cl)CC2=CC=CC=C2N(CCO)S(=O)(=O)C3=CC=C(C=C3)OC [KN-93] + C[C@@H](Oc1cc(-c2cnn(C3CCNCC3)c2)cnc1N)c1c(Cl)ccc(F)c1Cl [Crizotinib] (partner 1 µM)
An outline of the steps:
(§1)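 One day after seeding in 1536-well plates, lung cancer cell lines were dosed by pin tool. Dosing was either single-drug or a fixed anchor-drug dose plus five library-drug doses (not always all listed) in √10 steps. After 5 days, nuclei were stained in one fix-and-stain step and counted on 4× images, and relative viability is the nuclei count of treated wells over that of vehicle wells, given as the median of duplicate plates.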

Compound in the experiment “KN-93 + Dasatinib”: CN(C/C=C/C1=CC=C(C=C1)Cl)CC2=CC=CC=C2N(CCO)S(=O)(=O)C3=CC=C(C=C3)OC [KN-93] + Cc1nc(Nc2ncc(C(=O)Nc3c(C)cccc3Cl)s2)cc(N2CCN(CCO)CC2)n1 [Dasatinib] (partner 0.075 µM)
An outline of the steps:
as §1

Compound in the experiment “KN-93 + Olaparib”: CN(C/C=C/C1=CC=C(C=C1)Cl)CC2=CC=CC=C2N(CCO)S(=O)(=O)C3=CC=C(C=C3)OC [KN-93] + O=C(c1cc(Cc2n[nH]c(=O)c3ccccc23)ccc1F)N1CCN(C(=O)C2CC2)CC1 [Olaparib] (partner 8 µM)
An outline of the steps: as §1

Compound in the experiment “KN-93 + Alpelisib”: CN(C/C=C/C1=CC=C(C=C1)Cl)CC2=CC=CC=C2N(CCO)S(=O)(=O)C3=CC=C(C=C3)OC [KN-93] + Cc1nc(NC(=O)N2CCC[C@H]2C(N)=O)sc1-c1ccnc(C(C)(C)C(F)(F)F)c1 [Alpelisib] (partner 2 µM)
An outline of the steps: as §1

Compound in another experiment: CN(C/C=C/C1=CC=C(C=C1)Cl)CC2=CC=CC=C2N(CCO)S(=O)(=O)C3=CC=C(C=C3)OC [KN-93]
An outline of the steps: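 A plate was accepted only when its control CV was below 25% and the cells had doubled at least once. Viability is defined from nuclear counts as treated wells divided by vehicle wells, with the median taken across plates. That median covers lung cancer cell lines grown in 1536-well plates, dosed by pinning at five √10-spaced library-drug concentrations, and counted in MetaXpress from 4× Hoechst images after 5 days.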

With PC-14, the relative viability came to 0.89 with KN-93 + Crizotinib (first compound 0.08 µM); 0.842 with KN-93 + Crizotinib (first compound 0.253 µM); 0.953 in the experiment with KN-93 + Crizotinib (first compound 2.53 µM); 0.585 with KN-93 + Crizotinib (first compound 8 µM); 0.335 in the experiment with KN-93 + Dasatinib (first compound 0.08 µM); 0.18 in the experiment with KN-93 + Dasatinib (first compound 0.253 µM). Moreover, the relative viability with KN-93 + Dasatinib (first compound 2.53 µM) worked out at 0.198; in the experiment with KN-93 + Dasatinib (first compound 8 µM), 0.0533; in the experiment with KN-93 + Olaparib (first compound 0.08 µM) it was 0.252; with KN-93 + Olaparib (first compound 0.253 µM), 0.195; in the experiment with KN-93 + Olaparib (first compound 2.53 µM), 0.252; with KN-93 + Olaparib (first compound 8 µM), 0.218. The relative viability in the experiment with KN-93 + Alpelisib (first compound 0.08 µM) was determined as 0.753; in the experiment with KN-93 + Alpelisib (first compound 0.253 µM), 1.01; with KN-93 + Alpelisib (first compound 2.53 µM), 1.14; in the experiment with KN-93 + Alpelisib (first compound 8 µM) it was 0.839; in the experiment with KN-93 (0.08 µM), 0.943; with KN-93 (0.253 µM), 1.04. Further, the relative viability in the experiment with KN-93 (2.53 µM) was 1.2; with KN-93 (8 µM), 0.92.
In the case of RERF-LC-KJ, the relative viability was determined as 0.803 with KN-93 + Crizotinib (first compound 0.08 µM); 0.848 in the experiment with KN-93 + Crizotinib (first compound 0.253 µM); 0.917 in the experiment with KN-93 + Crizotinib (first compound 2.53 µM); 0.639 with KN-93 + Crizotinib (first compound 8 µM); 0.664 with KN-93 + Dasatinib (first compound 0.08 µM); 0.788 in the experiment with KN-93 + Dasatinib (first compound 0.253 µM). The relative viability came to 0.672 with KN-93 + Dasatinib (first compound 2.53 µM); 0.277 with KN-93 + Dasatinib (first compound 8 µM); 0.938 with KN-93 + Olaparib (first compound 0.08 µM); 0.97 in the experiment with KN-93 + Olaparib (first compound 0.253 µM); 0.836 with KN-93 + Olaparib (first compound 2.53 µM); 0.545 in the experiment with KN-93 + Olaparib (first compound 8 µM). Also, the relative viability with KN-93 + Alpelisib (first compound 0.08 µM) is 0.682; with KN-93 + Alpelisib (first compound 0.253 µM), 0.754; in the experiment with KN-93 + Alpelisib (first compound 2.53 µM) it was 0.766; with KN-93 + Alpelisib (first compound 8 µM), 0.634; in the experiment with KN-93 (0.08 µM), 0.915; with KN-93 (0.253 µM), 1.05. In addition, the relative viability was found to be 0.967 with KN-93 (2.53 µM) and 0.693 in the experiment with KN-93 (8 µM).
SK-LU-1: the relative viability amounted to 0.834 in the experiment with KN-93 + Crizotinib (first compound 0.08 µM); 1.26 with KN-93 + Crizotinib (first compound 0.253 µM); 0.915 with KN-93 + Crizotinib (first compound 2.53 µM); 0.673 in the experiment with KN-93 + Crizotinib (first compound 8 µM); 0.192 in the experiment with KN-93 + Dasatinib (first compound 0.08 µM); 0.179 with KN-93 + Dasatinib (first compound 0.253 µM). The relative viability with KN-93 + Dasatinib (first compound 2.53 µM) worked out at 0.188; with KN-93 + Dasatinib (first compound 8 µM), 0.17; with KN-93 + Olaparib (first compound 0.08 µM) it was 0.412; with KN-93 + Olaparib (first compound 0.253 µM), 0.471; with KN-93 + Olaparib (first compound 2.53 µM), 0.463; with KN-93 + Olaparib (first compound 8 µM), 0.276. For the same cell line, the relative viability with KN-93 + Alpelisib (first compound 0.08 µM) turned out to be 1.19; in the experiment with KN-93 + Alpelisib (first compound 0.253 µM), 1.47; with KN-93 + Alpelisib (first compound 2.53 µM) it was 0.926; with KN-93 + Alpelisib (first compound 8 µM), 0.471; with KN-93 (0.08 µM), 0.8; in the experiment with KN-93 (0.253 µM) it was 1.26. Moreover, the relative viability in the experiment with KN-93 (2.53 µM) is 1.16; in the experiment with KN-93 (8 µM), 0.759.
Consider SK-MES-1, for which the relative viability with KN-93 + Crizotinib (first compound 0.08 µM) was 1.05; in the experiment with KN-93 + Crizotinib (first compound 0.253 µM) it was 0.979; with KN-93 + Crizotinib (first compound 2.53 µM), 1.27; in the experiment with KN-93 + Crizotinib (first compound 8 µM), 0.8; with KN-93 + Dasatinib (first compound 0.08 µM), 0.42; with KN-93 + Dasatinib (first compound 0.253 µM), 0.318. Besides, the relative viability turned out to be 0.367 with KN-93 + Dasatinib (first compound 2.53 µM); 0.261 with KN-93 + Dasatinib (first compound 8 µM); 0.648 in the experiment with KN-93 + Olaparib (first compound 0.08 µM); 0.665 with KN-93 + Olaparib (first compound 0.253 µM); 0.935 in the experiment with KN-93 + Olaparib (first compound 2.53 µM); 0.333 in the experiment with KN-93 + Olaparib (first compound 8 µM). Further, the relative viability with KN-93 + Alpelisib (first compound 0.08 µM) worked out at 0.737; with KN-93 + Alpelisib (first compound 0.253 µM), 0.977; in the experiment with KN-93 + Alpelisib (first compound 2.53 µM) it was 0.864; with KN-93 + Alpelisib (first compound 8 µM), 0.862; in the experiment with KN-93 (0.08 µM), 0.888; in the experiment with KN-93 (0.253 µM), 0.981. Also, the figures for the relative viability in the experiment with KN-93 (2.53 µM) and with KN-93 (8 µM) were 1.07 and 0.766, respectively.
For SW 1573, the relative viability with KN-93 + Crizotinib (first compound 0.08 µM) came to 0.766; with KN-93 + Crizotinib (first compound 0.253 µM), 0.926; with KN-93 + Crizotinib (first compound 2.53 µM), 0.822; with KN-93 + Crizotinib (first compound 8 µM), 0.33; in the experiment with KN-93 + Dasatinib (first compound 0.08 µM), 0.551; in the experiment with KN-93 + Dasatinib (first compound 0.253 µM), 0.492. In addition, the relative viability with KN-93 + Dasatinib (first compound 2.53 µM) was found to be 0.474; in the experiment with KN-93 + Dasatinib (first compound 8 µM), 0.236; with KN-93 + Olaparib (first compound 0.08 µM), 0.456; with KN-93 + Olaparib (first compound 0.253 µM) it was 0.589; with KN-93 + Olaparib (first compound 2.53 µM), 0.523; with KN-93 + Olaparib (first compound 8 µM), 0.22. Moreover, the relative viability in the experiment with KN-93 + Alpelisib (first compound 0.08 µM) is 0.87; with KN-93 + Alpelisib (first compound 0.253 µM) it was 0.805; with KN-93 + Alpelisib (first compound 2.53 µM), 0.933; in the experiment with KN-93 + Alpelisib (first compound 8 µM), 0.632; in the experiment with KN-93 (0.08 µM), 0.862; with KN-93 (0.253 µM), 1.13. The relative viability with KN-93 (2.53 µM) is 1.02; with KN-93 (8 µM), 0.514.
As to UMC-11, the relative viability is 0.901 with KN-93 + Crizotinib (first compound 0.253 µM); 0.413 in the experiment with KN-93 + Crizotinib (first compound 2.53 µM); 0.457 in the experiment with KN-93 + Crizotinib (first compound 8 µM); 0.407 with KN-93 + Dasatinib (first compound 0.08 µM); 0.502 with KN-93 + Dasatinib (first compound 0.253 µM); 0.785 with KN-93 + Dasatinib (first compound 2.53 µM). The relative viability in the experiment with KN-93 + Dasatinib (first compound 8 µM) turned out to be 0.38; with KN-93 + Olaparib (first compound 0.08 µM) it was 0.43; in the experiment with KN-93 + Olaparib (first compound 0.253 µM), 0.402; with KN-93 + Olaparib (first compound 2.53 µM), 0.327; with KN-93 + Olaparib (first compound 8 µM), 0.214; with KN-93 + Alpelisib (first compound 0.253 µM) it was 1.24. Further, the relative viability with KN-93 + Alpelisib (first compound 2.53 µM) came to 1.27; with KN-93 + Alpelisib (first compound 8 µM) it was 0.613; with KN-93 (0.08 µM) it was 0.903; with KN-93 (0.253 µM), 1.14; in the experiment with KN-93 (2.53 µM), 1.14; with KN-93 (8 µM), 0.374.
